Measured values from ChEMBL document CHEMBL4373746, “Structural attributes influencing unbound tissue distribution” (Eur J Med Chem, 2020).

Assays:
[1] = Fraction unbound in Wistar Han rat plasma at 2 uM incubated for 6 hrs by equilibrium dialysis method
[2] = Fraction unbound in Wistar Han rat white adipose tissue at 2 uM incubated for 6 hrs by equilibrium dialysis method
[3] = Fraction unbound in Wistar Han rat brain at 2 uM incubated for 6 hrs by equilibrium dialysis method
[4] = Fraction unbound in Wistar Han rat heart at 2 uM incubated for 6 hrs by equilibrium dialysis method
[5] = Fraction unbound in Wistar Han rat liver at 2 uM incubated for 6 hrs by equilibrium dialysis method
[6] = Fraction unbound in Wistar Han rat skeletal muscle at 2 uM incubated for 6 hrs by equilibrium dialysis method
[7] = Total plasma concentration in Wistar Han rat at 1 to 2 mg/kg, iv infused for 10 to 20 hrs by LC-MS/MS analysis; details: in vivo
[8] = Drug concentration in total white adipose tissue in Wistar Han rat at 1 to 2 mg/kg, iv infused for 10 to 20 hrs by LC-MS/MS analysis; details: in vivo
[9] = Drug concentration in total brain in Wistar Han rat at 1 to 2 mg/kg, iv infused for 10 to 20 hrs by LC-MS/MS analysis; details: in vivo
[10] = Drug concentration in total heart in Wistar Han rat at 1 to 2 mg/kg, iv infused for 10 to 20 hrs by LC-MS/MS analysis; details: in vivo
[11] = Drug concentration in total liver in Wistar Han rat at 1 to 2 mg/kg, iv infused for 10 to 20 hrs by LC-MS/MS analysis; details: in vivo
[12] = Drug concentration in total skeletal muscle in Wistar Han rat at 1 to 2 mg/kg, iv infused for 10 to 20 hrs by LC-MS/MS analysis; details: in vivo
[13] = Unbound tissue partition coefficient, ratio of drug level in heart to plasma in Wistar Han rat at 1 to 2 mg/kg, iv infused for 10 to 20 hrs by LC-MS/MS analysis
[14] = Unbound tissue partition coefficient, ratio of drug level in brain to plasma in Wistar Han rat at 1 to 2 mg/kg, iv infused for 10 to 20 hrs by LC-MS/MS analysis
[15] = Unbound tissue partition coefficient, ratio of drug level in adipose to plasma in Wistar Han rat at 1 to 2 mg/kg, iv infused for 10 to 20 hrs by LC-MS/MS analysis
[16] = Unbound tissue partition coefficient, ratio of drug level in liver to plasma in Wistar Han rat at 1 to 2 mg/kg, iv infused for 10 to 20 hrs by LC-MS/MS analysis
[17] = Unbound tissue partition coefficient, ratio of drug level in skeletal muscle to plasma in Wistar Han rat at 1 to 2 mg/kg, iv infused for 10 to 20 hrs by LC-MS/MS analysis
[18] = Apparent permeability of the compound across dog RRCK cells by MDCK-LE assay
[19] = Unbound tissue partition coefficient, ratio of drug level in brain to plasma in mouse administered as single dose; format: ADME; details: read-out: K(p,uu,brain)

| Compound | fraction unbound at 6 h, 2 µM [1] | fraction unbound at 6 h, 2 µM [2] | fraction unbound at 6 h, 2 µM [3] | fraction unbound at 6 h, 2 µM [4] | fraction unbound at 6 h, 2 µM [5] | fraction unbound at 6 h, 2 µM [6] | Cp [7] [ng/mL] | Ct [8] [ng/mL] | Ct [9] [ng/mL] | Ct [10] [ng/mL] | Ct [11] [ng/mL] | Ct [12] [ng/mL] | Kp uu ([13]; heart/plasma) | Kp uu ([14]; brain/plasma) | Kp uu ([15]; adipose/plasma) | Kp uu ([16]; liver/plasma) | Kp uu ([17]; skeletal muscle/plasma) | Papp [18] [×10⁻⁶ cm/s] | Kp uu [19] | further results |
| --- | --- | --- | --- | --- | --- | --- | --- | --- | --- | --- | --- | --- | --- | --- | --- | --- | --- | --- | --- | --- |
| CS(=O)(=O)c1cccc(C(=O)O)c1 | 0.373 | 0.516 | 1 | 0.422 | 0.628 | 0.865 | 130 | 0.77 | 1 | 40 | 190 | 14 | 0.39 | 0.02 | 0.024 | 2.4 | 0.27 | 12 |  |  |
| O=C(O)c1nc2cc(Cl)c(Cl)cc2nc1O [6,7-DICHLORO-3-HYDROXY-2-QUINOXALINECARBOXYLIC ACID] | 0.0414 | 0.476 | 1 | 0.284 | 0.24 | 0.435 | 56 | 0.77 | 0.38 | 12 | 17 | 5.3 | 1.8 | 0.0018 | 0.024 | 2 | 1.1 | 1.3 |  |  |
| CN1CC[C@H](c2c(O)cc(O)c3c(=O)cc(-c4ccccc4Cl)oc23)[C@H](O)C1 [ALVOCIDIB] | 0.147 | 1 | 0.0442 | 0.0624 | 0.021 | 0.033 | 14 | 5.6 | 2.9 | 56 | 32 | 52 | 1.7 | 0.06 | 2.7 | 0.33 | 0.86 | 22 | 0.065 |  |
| CN(C)C(=O)C(CCN1CCC(O)(c2ccc(Cl)cc2)CC1)(c1ccccc1)c1ccccc1 [LOPERAMIDE] | 0.0462 | 0.00264 | 0.00591 | 0.00677 | 0.000644 | 0.0022 | 74 | 130 | 1.3 | 390 | 590 | 170 | 0.79 | 0.002 | 0.1 | 0.11 | 0.11 | 2.7 | 0.059 |  |
| COc1cc2nc(N3CCN(C(=O)c4ccco4)CC3)nc(N)c2cc1OC [PRAZOSIN] |  |  |  |  |  |  | 40 | 33 | 11 | 180 | 640 | 100 |  |  |  |  |  | 26 | 0.059 | Kp uu ([13]; other tissue): 2.4; Kp uu ([14]; brain): 0.11; Kp uu ([15]; other tissue): 1.2; Kp uu ([16]; other tissue): 2.8; Kp uu ([17]; other tissue): 0.68 |
| CC(C)c1nc(CN(C)C(=O)N[C@H](C(=O)N[C@@H](Cc2ccccc2)C[C@H](O)[C@H](Cc2ccccc2)NC(=O)OCc2cncs2)C(C)C)cs1 [RITONAVIR] |  |  |  |  |  |  |  |  |  |  |  |  |  |  |  |  |  | 9.9 | 0.019 | Cp ([7]; Wistar Han): 27 ng/mL; Ct ([8]; Wistar Han): 31 ng/mL; Ct ([9]; Wistar Han): 0.38 ng/mL; Ct ([10]; Wistar Han): 170 ng/mL; Ct ([11]; Wistar Han): 370 ng/mL; Ct ([12]; Wistar Han): 42 ng/mL; Kp uu ([13]; other tissue): 9.6; Kp uu ([14]; brain): 0.0018; Kp uu ([15]; other tissue): 9.6; Kp uu ([16]; other tissue): 1.2; Kp uu ([17]; other tissue): 0.56 |

Second part, led by results:

| fraction unbound at 6 h, 2 µM [1] | fraction unbound at 6 h, 2 µM [2] | fraction unbound at 6 h, 2 µM [3] | fraction unbound at 6 h, 2 µM [4] | fraction unbound at 6 h, 2 µM [5] | fraction unbound at 6 h, 2 µM [6] | Cp [7] [ng/mL] | Ct [8] [ng/mL] | Ct [9] [ng/mL] | Ct [10] [ng/mL] | Ct [11] [ng/mL] | Ct [12] [ng/mL] | Kp uu ([13]; heart/plasma) | Kp uu ([14]; brain/plasma) | Kp uu ([15]; adipose/plasma) | Kp uu ([16]; liver/plasma) | Kp uu ([17]; skeletal muscle/plasma) | Papp [18] [×10⁻⁶ cm/s] | Kp uu [19] | Compound | further results |
| --- | --- | --- | --- | --- | --- | --- | --- | --- | --- | --- | --- | --- | --- | --- | --- | --- | --- | --- | --- | --- |
| 0.00041 | 0.000192 | 8.38e-05 | 0.000104 | 0.000706 | 5.36e-05 | 240 | 410 | 31 | 620 | 730 | 240 | 0.68 | 0.028 | 0.87 | 5.6 | 0.14 | 0.1 |  | C[C@H](CN1CCOCC1)n1/c(=N\C(N)=O)[nH]c2cc(/C=C3\c4ccccc4COc4cc(F)ccc43)ccc21 [LY2623091] |  |
| 0.00392 | 0.0593 | 0.00714 | 0.00722 | 0.00845 | 0.00926 | 410 | 18 | 5.8 | 200 | 2400 | 58 | 0.91 | 0.026 | 0.69 | 13 | 0.33 | 8.5 |  | CCC[C@H](Oc1cc(C)c(-n2cc(C(F)(F)F)cn2)c(C)c1)c1ccc(C(=O)NCCC(=O)O)cc1 [PF-06291874] |  |
| 0.686 | 0.541 | 0.239 | 0.237 | 0.237 | 0.676 | 160 | 30 | 87 | 190 | 290 | 160 | 0.39 | 0.19 | 0.14 | 0.63 | 0.99 | 0.27 |  | CCCn1cnc(C[C@H](CCCN)C(=O)O)c1 [UK-396,082] |  |
